Data set [1] is described as follows: Fluorescence emission of Compound 1 with cysteine added to non-pretreated urine. More on the design: species or system human. As to the method:
In order to confirm the reaction of Compound 1 with cysteine in urine, non-pretreated urine (198 μL) was treated with varying concentrations (1 to 120 ng/μL) of cysteine, and then treated with Compound 1 (100 μM). The resulting urines were stirred in a stirrer at 37° C. for 40 minutes, and the fluorescence spectra were measured (excitation wavelength: 488 nm). In addition, Compound 1 was used after dissolution in a DMSO solution at 10 mM, and the amount of DMSO in the final solvent condition was controlled to be the same for each container (less than 1%).
Specifically, a spectro-fluorophotometer (SHIMADZU Corp. RF-6000, Japan) was used to analyze the emission spectrum, and the glass cuvette used for fluorescence measurement was a standard quartz cell (internal volume=[…], Hellma Analytics, Jena, Germany) having a thickness of 1 cm on all sides. In addition, a chamber (WUV-L10, DAIHAN Scientific) capable of excitation at a wavelength of 365 nm was used to visually observe the fluorescence change.
When the urine was treated with compound 1 (100 μM) and cysteine (60 ng/μL or higher), fluorescence changes were visible without a separate fluorescence measurement device. Although fluorescence changes were not visible when the urine was treated with Compound 1 (100 μM) and cysteine (concentration of 10 ng/μL or lower), examination was made as to whether fluorescence changes in this treatment could be confirmed using a fluorescence measurement device (FIG. 1(b)). Referring to FIG. 1(b), significant fluorescence changes could be obtained in the presence of 1 ng/μL of cysteine in urine, and statistical data thereon are shown below.

Data set [2] in a line: Binding selectivity of Compound 1 to cysteine in urine by fluorescence change. The settings on record: 37° C. 40 minutes, excitation 488 nm; for selectivity of fluorescence change among biomolecules detectable in urine: each biomolecule 100 μM (cysteine, glutathione, aspartic acid, glutamine, lysine, arginine, adenosine triphosphate, sucrose, ammonium), FIG. 2(b). As to the method: Specifically, in order to determine whether Compound 1 selectively binds to cysteine in urine, cysteine and N-ethylmaleimide (NEM) (500 μM) capable of lowering cysteine concentration in urine were used. In addition, glutathione, aspartic acid, glutamine, lysine, arginine, adenosine triphosphate, sucrose, and ammonium used in the experiment were products obtained from TCI (Tokyo Chemical Industry Co., Ltd), Sigma Aldrich, and Alfa Company. The concentration of each biomolecule was equally measured at 100 μM. In addition, in order to obtain fluorescence spectra and values, Compound 1 and an unknown sample were stirred at 37° C. for 40 minutes and then excited at a wavelength of 488 nm.
The types of biomolecules indicated on the x-axis of FIG. 2(b) are as follows, and the following Probe 1 corresponds to Compound 1: • (A) Probe 1; • (B) Probe 1 with L-cysteine; • (C) Probe 1 with L-glutathione; • (D) Probe 1 with L-aspartic acid; • (E) Probe 1 with L-glutamine; • (F) Probe 1 with L-lysine; • (G) Probe 1 with L-arginine; • (H) Probe 1 with adenosine triphosphate; • (I) Probe 1 with sucrose; • (J) Probe 1 with ammonium.

Data set [3] is described as follows: Fluorescence spectral analysis of Compound 1 in urine derived from cervical cancer patients. Details: species or system human. The settings on record: Compound 1 100 μM, urines N=100 versus normal N=308, 37° C. 40 minutes. The protocol:
Specifically, fluorescence spectral analysis was performed immediately after treatment of the urines with Compound 1 (black line). After stirring at 37° C. for 40 minutes, fluorescence spectral analysis was performed (red line). […]

The nature of data set [4]: Fluorescence spectral analysis of Compound 1 in urines from patients with other diseases including cancer. Details: species or system human. The settings on record: Compound 1 100 μM, 37° C. 40 minutes. From the text: The urines used in the experiment were collected from urolithiasis patients (B, N=162), kidney cancer patients (C, N=162), prostate cancer patients (D, N=162), bladder cancer patients (E, N=162), cervical cancer patients (F, N=100), diabetic patients (G, N=100), pituitary cancer patients (H, N=100), adrenal cancer patients (I, N=100), lung cancer patients (J, N=100), ovarian cancer patients (K, N=100), pancreatic and biliary tract cancer patients (L, N=100), and pancreatic cancer patients (M, N=100). In the measurement method, each of the collected urine (198 μL) and Compound 1 (100 μM) were mixed together, the fluorescence spectra thereof were measured, and the highest fluorescence intensity value was taken. Then, each mixture was stirred at 37° C. for 40 minutes, and the highest fluorescence intensity value obtained from the fluorescence spectra was taken. The difference between the fluorescence intensity values before and after the reaction was shown as a bar graph.

Consider `O=[N+]([O-])c1ccc(Oc2c(F)c(F)c(F)c(F)c2F)c2nonc12` [Compound 1, 4-nitro-7-(Perfluorophenoxy)benzo[c][1,2,5]oxadiazole], for which the “cysteine concentration at which fluorescence changes were visible without a separate fluorescence measurement device” value in data set [1] (normal urine, Compound 1 100 μM, 37° C. 40 minutes, excitation at 365 nm) was at least 60 ng/µL. For the same molecule, the “cysteine concentration at which fluorescence changes were not visible” value in data set [1] (normal urine, Compound 1 100 μM, 37° C. 40 minutes, excitation at 365 nm, by eye) was at most 10 ng/µL. The “cysteine concentration in urine giving significant fluorescence changes using a fluorescence measurement device” value in data set [1] (urine, Compound 1 100 μM, 37° C. 40 minutes, excitation 488 nm) is 1 ng/µL. In data set [1] (when bound to cysteine), the “wavelength of fluorescence turn-on upon binding to cysteine” value is on record as about 550 nm. The “fluorescence value in urine containing cysteine” value in data set [2] (FIG. 2(a)) is recorded as “high fluorescence value”. In addition, in data set [2] (N-ethylmaleimide 500 μM, urine, FIG. 2(a)), the “fluorescence value on co-treatment with N-ethylmaleimide which reduces cysteine” value is listed as “fluorescence value decreased”. In addition, the results for the “selectivity of fluorescence change among biomolecules detectable in urine” value in data set [2] and in data set [2] (listed as 4-nitro-7-(perfluorophenoxy)benzo[c][1,2,5]oxadiazole) were “significant fluorescence change could be observed only for cysteine” and “selectively detect cysteine in urine without interference of other biomolecules”, respectively. In addition, the “fluorescence values after reaction in urines derived from cervical cancer patients” value in data set [3] is reported as “high fluorescence values”. For the same molecule, the “patient group with the largest fluorescence emission effect” value in data set [4] (cervical cancer patients (F) compared with the other patient groups) is “greatest in the case of cervical cancer patients”. Moreover, in data set [4] (urines of urolithiasis (B), cervical cancer (F), adrenal cancer (I), ovarian cancer (K), pancreatic and biliary tract cancer (L) patients), the “fluorescence emission (difference of highest fluorescence intensity before and after reaction) in patient urines” value was “noticeable fluorescence emission was observed”.

The values are drawn from US11884638B2, “Compound or salt thereof, composition for cysteine detection, fluorescent probe and composition for diagnosing cancer containing the same, method for detecting cysteine, method for providing information for diagnosing cancer, and method for producing compound” (Industry-Academic Cooperation Group of Kyung Hee University, priority 2021, dated 2024).
